# Test results from US20240122847A1, “ORAL POLYPEPTIDE FORMULATIONS” (Bhami's Research Laboratory, Pvt. Ltd., priority 2022, published 2024).
# Tests used:
# [1] = system: serum calcium, serum phosphorous and alkaline phosphatase; test: Pharmacodynamics of PTH in rats; format: in vivo, SD rats; set-up: sCa (serum calcium): unit not given here; details: for sALP (serum alkaline phosphatase) / sCa (serum calcium) / sP (serum phosphorous): subcutaneous 40 μg
# Description: The serum calcium and serum phosphorous were estimated using Siemen's […] 744 Electrolyte Analyzer and for serum ALP Siemen's Dimension Expand Plus was used.
# The pharmacodynamics data in subcutaneous and buccal/Sublingual groups of rats are shown in Tables 27 and 28 and in FIGS. 67 and 68.
# [2] = Pharmacokinetics of PTH (1-34) in SD rats, sugar truffle buccal/sublingual vs SC, plasma PTH (1-34) ELISA
# Description: Pharmacokinetic analysis was conducted in female rats weighing 220-250 grams for 2 days. Rats in the oral treatment group was either fasted overnight or fed prior to the test sample administration. All the test animals in the treatment groups were administered with respective test formulation to the pre-designated animals. The animal was restrained and its head was held vertically, the jaws were pulled away, the tongue was gently lifted with a forceps followed by placement of a polypeptide formulation as described herein buccally/sublingually. After placing a polypeptide formulation as described herein, the snout was held together for about 1-2 mins to prevent the chewing of the polypeptide formulation. The time of dosage of each animal was noted. Blood samples were collected at aforementioned time points 0 min, 15 min, 30 min, 1 hour, 2 hours, 4 hours, 8 hours, 12 hours, 24 hours, and 48 hours into an EDTA-blood collection tubes for the separation of plasma to determine PTH (1-34) levels by ELISA. Plasma samples collected at different time points were analyzed by ELISA kit according to Creative Diagnostics protocol. This kit is based on sandwich enzyme-linked immuno-sorbent assay technology. An antibody, anti-PTH (1-34) was pre-coated onto a 96-well plate. Standards, test samples, and biotin-conjugated reagent were added to the wells and incubated. The HRP-conjugated reagent was then added, and the whole plate was incubated. Unbound conjugates were removed using wash buffer at each stage. TMB substrate was used to quantify the HRP enzymatic reaction. After TMB substrate was added, only wells that contain sufficient PTH (1-34) will produce a blue colored product, which then changes to yellow after adding the acidic stop solution. The intensity of the yellow color is proportional to the PTH (1-34) amount bound on the plate. The Optical Density (OD) was measured spectrophotometrically at 450 nm in a microplate reader, from which the concentration of PTH (1-34) can be calculated.
# PTH (1-34) was analyzed in plasma using a specific enzyme linked immunosorbent assay (ELISA). Pharmacokinetic endpoints were determined using noncompartmental methods using PK Solutions software. AUC was approximated using the trapezoidal rule on the observed concentrations. C max for each PTH (1-34) dose was derived as the maximum of all valid concentrations, and t max was then determined as the corresponding time point to C max. The terminal elimination rate constant (λz) was estimated by log-linear regression on the terminal part of the concentration-time curve, and t ½ was then calculated as t ½=ln 2/λz.
# [3] = female, SD, rat, plasma, 0.49 mg
# [4] = female, SD, rat, plasma, sc, 0.04 mg
smiles,measurement,setting,value
CC[C@H](C)[C@H](NC(=O)[C@H](CCC(=O)O)NC(=O)[C@H](CO)NC(=O)[C@@H](NC(=O)[C@@H](N)CO)C(C)C)C(=O)N[C@@H](CCC(N)=O)C(=O)N[C@@H](CC(C)C)C(=O)N[C@@H](CCSC)C(=O)N[C@@H](Cc1cnc[nH]1)C(=O)N[C@@H](CC(N)=O)C(=O)N[C@@H](CC(C)C)C(=O)NCC(=O)N[C@@H](CCCCN)C(=O)N[C@@H](Cc1cnc[nH]1)C(=O)N[C@@H](CC(C)C)C(=O)N[C@@H](CC(N)=O)C(=O)N[C@@H](CO)C(=O)N[C@@H](CCSC)C(=O)N[C@@H](CCC(=O)O)C(=O)N[C@@H](CCCN=C(N)N)C(=O)N[C@H](C(=O)N[C@@H](CCC(=O)O)C(=O)N[C@@H](Cc1c[nH]c2ccccc12)C(=O)N[C@@H](CC(C)C)C(=O)N[C@@H](CCCN=C(N)N)C(=O)N[C@@H](CCCCN)C(=O)N[C@@H](CCCCN)C(=O)N[C@@H](CC(C)C)C(=O)N[C@@H](CCC(N)=O)C(=O)N[C@@H](CC(=O)O)C(=O)N[C@H](C(=O)N[C@@H](Cc1cnc[nH]1)C(=O)N[C@@H](CC(N)=O)C(=O)N[C@@H](Cc1ccccc1)C(=O)O)C(C)C)C(C)C [PTH (1-34)],"PD effect on serum calcium, serum phosphorous and serum alkaline phosphatase",[1]; PTH given by buccal/sublingual route,"clearly indicates the effect on serum calcium, serum phosphorous and serum alkaline phosphatase"
same,sALP (serum alkaline phosphatase),[1]; time 0 hours,98.5 ± 33.23
same,sCa (serum calcium),[1]; time 0 hours,9.05 ± 0.07
same,sP (serum phosphorous),[1]; time 0 hours,9.3 ± 0.28
same,sALP (serum alkaline phosphatase),[1]; time 0.08 hours,131 ± 1.41
same,sCa (serum calcium),[1]; time 0.08 hours,9.65 ± 0.77
same,sP (serum phosphorous),[1]; time 0.08 hours,8.85 ± 0.07
same,sALP (serum alkaline phosphatase),[1]; time 0.5 hours,136 ± 7.07
same,sCa (serum calcium),[1]; time 0.5 hours,10.2 ± 0.28
same,sP (serum phosphorous),[1]; time 0.5 hours,8.45 ± 0.21
same,sALP (serum alkaline phosphatase),[1]; time 1 hours,142 ± 5.65
same,sCa (serum calcium),[1]; time 1 hours,10.35 ± 0.35
same,sP (serum phosphorous),[1]; time 1 hours,4.85 ± 0.91
same,sALP (serum alkaline phosphatase),[1]; time 2 hours,184.5 ± 16.26
same,sCa (serum calcium),[1]; time 2 hours,10.45 ± 0.35
same,sP (serum phosphorous),[1]; time 2 hours,5.75 ± 1.06
same,sALP (serum alkaline phosphatase),[1]; time 4 hours,151 ± 21.21
same,sCa (serum calcium),[1]; time 4 hours,9.45 ± 0.21
same,sP (serum phosphorous),[1]; time 4 hours,8.65 ± 0.21
same,sALP (serum alkaline phosphatase),[1]; time 8 hours,131.5 ± 14.84
same,sCa (serum calcium),[1]; time 8 hours,9.25 ± 0.35
same,sP (serum phosphorous),[1]; time 8 hours,8.95 ± 0.07
same,sALP (serum alkaline phosphatase),[1]; time 24 hours,111 ± 21.21
same,sCa (serum calcium),[1]; time 24 hours,9.05 ± 0.21
same,sP (serum phosphorous),[1]; time 24 hours,9.35 ± 0.07
same,level at 5 min,[2]; [3],3510 pg/mL
same,level at 0.5 h,[2]; [3],3070 pg/mL
same,level at 1 h,[2]; [3],2870 pg/mL
same,level at 2 h,[2]; [3],1630 pg/mL
same,level at 4 h,[2]; [3],214 pg/mL
same,level at 8 h,[2]; [3],33.7 pg/mL
same,level at 24 h,[2]; [3],6.02 pg/mL
same,bioavailability,"[2]; female, SD, rat, plasma, other: buccal/sublingual, 0.49 mg",7%
same,MRT last,[2]; [4],2.02 h
same,Tmax,[2]; [4],0.5 h
same,half-life,[2]; [4],4.46 h
same,level at 0 h,[2]; [4],0.002 pg/mL
same,level at 5 min,[2]; [4],403 pg/mL
same,level at 0.5 h,[2]; [4],3400 pg/mL
same,level at 1 h,[2]; [4],3270 pg/mL
same,level at 2 h,[2]; [4],2930 pg/mL
same,level at 4 h,[2]; [4],167 pg/mL
same,level at 8 h,[2]; [4],50.9 pg/mL
same,level at 24 h,[2]; [4],6.2 pg/mL
same,AUC(0-inf),"[2]; female, SD, rat, plasma, sc, 0.04 mg, AUC 0-inf_obs, rats",9.61 ng·h/mL
same,AUC(0-inf),"[2]; female, SD, rat, plasma, sc, 0.04 mg, AUC 0-inf_pred, rats",9.61 ng·h/mL
same,AUC 0-t,"[2]; female, SD, rat, plasma, sc, 0.04 mg, AUC 0-t, rats",9.57 ng·h/mL
same,AUC(t-inf),"[2]; female, SD, rat, plasma, sc, 0.04 mg, AUC t-inf_obs, rats",0.0399 ng·h/mL
same,AUC(t-inf),"[2]; female, SD, rat, plasma, sc, 0.04 mg, AUC t-inf_pred, rats",0.0375 ng·h/mL
same,MRT inf,"[2]; female, SD, rat, plasma, sc, 0.04 mg, MRT 0-inf_obs, rats",2.13 h
same,MRT inf,"[2]; female, SD, rat, plasma, sc, 0.04 mg, MRT 0-inf_pred, rats",2.13 h
same,Mean PTH (1-34) levels,"[2]; rats, GII - Buccal/sublingual 0.49 mg, 0 min",0.000 pg/mL
same,AUMC 0-inf_obs,"[2]; rats, SC, 0.04 mg",20516.940 pg/mL*h^2
same,AUMC 0-inf_pred,"[2]; rats, SC, 0.04 mg",20442.395 pg/mL*h^2
same,AUMC 0-t,"[2]; rats, SC, 0.04 mg",19300.931 pg/mL*h^2
same,AUMC 0-t/0-inf_obs,"[2]; rats, SC, 0.04 mg",0.941
same,AUMC 0-t/0-inf_pred,"[2]; rats, SC, 0.04 mg",0.944
same,AUMC t-inf_obs,"[2]; rats, SC, 0.04 mg",1216.009 pg/mL*h^2
same,AUMC t-inf_pred,"[2]; rats, SC, 0.04 mg",1141.464 pg/mL*h^2
same,Clast_obs,"[2]; rats, SC, 0.04 mg",6.201 pg/mL
same,Clast_pred,"[2]; rats, SC, 0.04 mg",5.821 pg/mL
same,Cmax,"[2]; rats, SC, 0.04 mg",3401.092 pg/mL
same,Lambda_z,"[2]; rats, SC, 0.04 mg",0.155 h⁻¹
same,Tlag,"[2]; rats, SC, 0.04 mg",0.000 h
same,Tlast,"[2]; rats, SC, 0.04 mg",24.000 h
